{"source": "patent EP0878193A1", "about": "“REMEDIES FOR HERPESVIRUS INFECTION CAUSED BY HERPESVIRUS AND PREVENTIVES FOR RECURRENCE OF THE INFECTION BOTH CONTAINING TRITERPENE DERIVATIVES AS THE ACTIVE INGREDIENT” (Showa Shell Sekiyu K.K., priority 1996, dated 1997)", "key": {"TK^-": {"tested_on": "TK^-", "assay": "plaque formation test (antiviral activity, CPE as index) on Vero cells", "format": "cell-based, TK deficiency herpes simplex virus type 1 (strain B 2006)", "conditions": "Human alphaherpesvirus 1, Vero, read-out: EC50 (µg/mℓ) (average ± standard deviation)", "text": "(§1) In order to examine antiviral activity, herpes simplex virus type 1 (strain 7401 H) (referred sometimes to as \"HSV-1\" hereinafter), TK deficiency herpes simplex virus type 1 (strain B 2006) (referred sometimes to as \"TK^-\" hereinafter), phosphono acetic acid (referred to as \"PAA\" hereinafter) resistant herpes simplex virus type 1 (PAA resistant strain derived from 7401 H) (referred sometimes to as \"AP^r1\" hereinafter) and herpes simplex virus type 2 (strain Ito 1262) (referred sometimes to as \"HSV-2\" hereinafter) were used as viruses. […]\n(§2) That is, the above-described virus solution was diluted to a concentration of 100 plaques/0.2 mℓ, the thus diluted virus solution (0.2 mℓ) was inoculated into Vero cells which have been cultured into monolayer in a plastic dish of 60 mm in diameter, and the mixture was incubated at 37°C for 1 hour to effect adsorption of viruses to the Vero cells. After the adsorption, 2% fetal bovine serum-added MEM medium (5 mℓ) containing each drug solution to be measured having varied drug concentration and 0.8% methyl cellulose was overlaid on the just described virus-adsorbed monolayer Vero cells which were subsequently cultured at 37°C for 2 to 5 days to effect plaque formation. […] The number of plaques was counted under a stereoscopic microscope. […]"}, "HSV-2": {"tested_on": "HSV-2", "assay": "plaque formation test (antiviral activity, CPE as index) on Vero cells", "format": "cell-based, herpes simplex virus type 2 (strain Ito 1262)", "conditions": "Human alphaherpesvirus 2, Vero, 50% plaque formation inhibition concentration; HSV-2 on Vero cells; three experiments; read-out: EC50 (µg/mℓ) (average ± standard deviation)", "text": "as §1, §2"}, "[1]": {"tested_on": "HSV-1, AP^r1, TK^-, HSV-2", "assay": "viral growth inhibition activity, plaque forming unit (PFU/mℓ) as index, 24 hours culture", "format": "cell-based, herpes simplex virus", "conditions": "5, 10 or 20 µg/mℓ compared with the control (water); also drug-resistant strains AP^r and TK^-; Table 2 is an image", "protocol": "Next, the viral growth inhibition activity was measured in the following manner making use of a plaque forming unit (PFU/mℓ) as an index. That is, each of the above-described viral strains was adsorbed to Vero cells which have been cultured into monolayer in a plastic dish of 60 mm in diameter, and the resulting cells were supplemented with 2% fetal bovine serum-added MEM medium (3 mℓ) and 3-oxo-olean-18-en-28-oic acid solution (1 mℓ) having varied concentration and cultured at 37°C for 24 hours. After 24 hours, the thus infected cells were subjected to three times of freezing-thawing and then to centrifugation (3,000 rpm, 15 minutes), and the resulting supernatant fluid was used as a virus solution to count the number of infectious viruses by the above-described plaque formation test and to calculate the plaque forming unit (PFU/mℓ) based on the counts."}, "HSV-1 [2]": {"tested_on": "HSV-1", "assay": "skin infection of BALB/c mice with HSV-1, scoring of affected parts and survival", "format": "in vivo", "text": "In order to illustratively confirm the effect of 3-oxo-olean-18-en-28-oic acid (moronic acid) to inhibit growth of viruses after viral infection, skin cell tissues of BALB/c mice were infected with the strain HSV-1 and then the parts affected thereafter were observed and scored. The scores were made based on the average time (days ± standard deviation) until the affected parts reached score 2 (local efflorescence, bulla, erosion) or score 6 (slight shingles) and based on the survival days."}, "[3]": {"assay": "toxicity test in non-infected mice", "format": "in vivo", "protocol": "Next, in order to examine toxicity of moronic acid, a toxicity test was carried out by administering control (water only) or 1 mg, 5 mg or 10 mg per kg mouse body weight of 3-oxo-olean-18-en-28-oic acid (moronic acid) to mice which have not been infected with viruses. Mice having a weight of 18 to 21 g/animal just before the commencement of the test were used in five animals per group. None of the mice died before completion of the test. 3-Oxo-olean-18-en-28-oic acid (moronic acid) was orally administered every day and three times a day."}, "HSV-1 [4]": {"tested_on": "HSV-1", "assay": "viral DNA synthesis, slot-blot hybridization with radiation-labeled probe in Vero cells", "format": "cell-based, herpes simplex virus type 1 (strain 7401 H)", "conditions": "HSV-1 in Vero cells; 0, 5, 10 or 20 µg/mℓ; even at 20 µg/mℓ; Fig. 2", "protocol": "Finally, in order to examine effects of moronic acid on the viral synthesis ability, the amount of virus particles in cultured cells was measured by the slot-blot hybridization described in J. Traditional Med., 12, 187 - 194 (1995). Using a radiation-labeled probe, viral DNA synthesis ability of herpesvirus strains HSV-1 and AP^r1 was measured just after adsorption of the viruses to animal cells (Vero cells) or when concentration of 3-oxo-olean-18-en-28-oic acid (moronic acid) was changed (0, 5, 10 or 20 µg/mℓ), with the results shown as a chart in Fig. 2 (photograph).\nIn Fig. 2, rough amounts of each herpesvirus are shown by the strength of black parts. For the sake of comparison, DNA copy number of a virus TK^- is shown on the right-side column as a reference strength."}, "Vero cells": {"tested_on": "Vero cells", "assay": "cytotoxicity (observation, no method given)", "conditions": "at the concentration by which it showed anti-herpesvirus activity"}, "[5]": {"conditions": "Exp. 3, 1 mg/kg oral three times a day"}, "[6]": {"conditions": "Exp. 3, 10 mg/kg oral three times a day"}, "[7]": {"conditions": "Exp.1, 1 mg/kg oral three times a day"}, "[8]": {"conditions": "Exp.2, 0.2 mg/kg oral three times a day"}, "[9]": {"conditions": "Exp.2, 1 mg/kg oral three times a day"}, "[10]": {"conditions": "Exp.2, 5 mg/kg oral three times a day"}, "[11]": {"conditions": "Exp. 1, 1 mg/kg orally every day, three times a day, non-infected mice, five per group"}}, "data": [{"smiles": "CC1(C)C=C2[C@H]3CC[C@@H]4[C@@]5(C)CCC(=O)C(C)(C)[C@@H]5CC[C@@]4(C)[C@]3(C)CC[C@@]2(C(=O)O)CC1", "note": "[Moronic acid, 3-oxo-olean-18-en-28-oic acid]", "values": [{"measurement": "EC50", "setting": "TK^-", "result": "2 ± 0.4", "unit": "µg/mL"}, {"measurement": "EC50", "setting": "HSV-2", "result": "5.8 ± 0.5", "unit": "µg/mL"}, {"measurement": "ratio of plaques formed by each viral strain", "setting": "[1]", "result": "decreases"}, {"measurement": "Average time (days ± standard deviation) Score-2 (local efflorescence, bulla, erosion)", "setting": "HSV-1 [2]; [5]", "result": "3.80 ± 0.63", "unit": "b days"}, {"measurement": "Average time (days ± standard deviation) Score-6 (slight shingles)", "setting": "HSV-1 [2]; [5]", "result": "5.60 ± 0.71", "unit": "days"}, {"measurement": "Average time (days ± standard deviation) Survival", "setting": "HSV-1 [2]; [5]", "result": "7.70 ± 2.16", "unit": "days"}, {"measurement": "Average time (days ± standard deviation) Score-2 (local efflorescence, bulla, erosion)", "setting": "HSV-1 [2]; [6]", "result": "3.70 ± 0.48", "unit": "b days"}, {"measurement": "Average time (days ± standard deviation) Score-6 (slight shingles)", "setting": "HSV-1 [2]; [6]", "result": "5.30 ± 0.48", "unit": "days"}, {"measurement": "Average time (days ± standard deviation) Survival", "setting": "HSV-1 [2]; [6]", "result": "6.80 ± 0.42", "unit": "days"}, {"measurement": "Average time (days ± standard deviation) Score-2 (local efflorescence, bulla, erosion)", "setting": "HSV-1 [2]; [7]", "result": "3.90 ± 0.70", "unit": "b days"}, {"measurement": "Average time (days ± standard deviation) Score-6 (slight shingles)", "setting": "HSV-1 [2]; [7]", "result": "5.70 ± 0.68", "unit": "b days"}, {"measurement": "Average time (days ± standard deviation) Survival", "setting": "HSV-1 [2]; [7]", "result": "7.30 ± 1.16", "unit": "b days"}, {"measurement": "Average time (days ± standard deviation) Score-2 (local efflorescence, bulla, erosion)", "setting": "HSV-1 [2]; [8]", "result": "4.00 ± 0.47", "unit": "d days"}, {"measurement": "Average time (days ± standard deviation) Score-6 (slight shingles)", "setting": "HSV-1 [2]; [8]", "result": "5.78 ± 0.97", "unit": "days"}, {"measurement": "Average time (days ± standard deviation) Survival", "setting": "HSV-1 [2]; [8]", "result": "6.89 ± 0.33", "unit": "days"}, {"measurement": "Average time (days ± standard deviation) Score-2 (local efflorescence, bulla, erosion)", "setting": "HSV-1 [2]; [9]", "result": "3.60 ± 0.70", "unit": "days"}, {"measurement": "Average time (days ± standard deviation) Score-6 (slight shingles)", "setting": "HSV-1 [2]; [9]", "result": "5.40 ± 0.52", "unit": "days"}, {"measurement": "Average time (days ± standard deviation) Survival", "setting": "HSV-1 [2]; [9]", "result": "7.00 ± 1.49", "unit": "days"}, {"measurement": "Average time (days ± standard deviation) Score-2 (local efflorescence, bulla, erosion)", "setting": "HSV-1 [2]; [10]", "result": "3.90 ± 0.74", "unit": "b days"}, {"measurement": "Average time (days ± standard deviation) Score-6 (slight shingles)", "setting": "HSV-1 [2]; [10]", "result": "5.40 ± 0.53", "unit": "days"}, {"measurement": "Average time (days ± standard deviation) Survival", "setting": "HSV-1 [2]; [10]", "result": "7.10 ± 1.52", "unit": "days"}, {"measurement": "Death rate", "setting": "[3]; Exp. 1, 1 mg/kg orally every day, three times a day, non-infected mice", "result": "0/5"}, {"measurement": "(Average body weight ± standard deviation) Administration period 7 days", "setting": "[3]; [11]", "result": "19.8 ± 1.4"}, {"measurement": "(Average body weight ± standard deviation) Administration period 36 days", "setting": "[3]; [11]", "result": "22.6 ± 0.8"}, {"measurement": "Death rate", "setting": "[3]; Exp. 1, 5 mg/kg orally every day, three times a day, non-infected mice", "result": "0/5"}, {"measurement": "Death rate", "setting": "[3]; Exp. 2, 10 mg/kg orally every day, three times a day, non-infected mice", "result": "0/5"}, {"measurement": "deaths of mice", "setting": "[3]; even at the maximum concentration of 10 mg/kg, after the lapse of time of 25 days", "result": "none of the five mice died"}, {"measurement": "(Average body weight ± standard deviation) Administration period 7 days", "setting": "[3]; mouse, in vivo, po, 5 mg/kg", "result": "19.9 ± 1.4"}, {"measurement": "(Average body weight ± standard deviation) Administration period 36 days", "setting": "[3]; mouse, in vivo, po, 5 mg/kg", "result": "21.0 ± 0.8"}, {"measurement": "(Average body weight ± standard deviation) Administration period 7 days", "setting": "[3]; mouse, in vivo, po, 10 mg/kg", "result": "20.1 ± 1.2"}, {"measurement": "(Average body weight ± standard deviation) Administration period 21 days", "setting": "[3]; mouse, in vivo, po, 10 mg/kg", "result": "20.4 ± 1.0"}, {"measurement": "effect to inhibit virus DNA synthesis", "setting": "HSV-1 [4]", "result": "not found"}, {"measurement": "cytotoxicity", "setting": "Vero cells", "result": "not observed"}]}]}
